Measurements as given in patent US11707557B2, “Compositions and devices incorporating water-insoluble therapeutic agents and methods of the use thereof” (COOK MEDICAL TECHNOLOGIES LLC, priority 2014, dated 2023).

Columns and labels:
[1] = Rate of paclitaxel release from EGCG carrier coatings on balloon catheters; assay type: physicochemical
Protocol: A balloon catheter was inflated and revolved along its horizontal axis. […] The drug/EGCG solution was slowly pipetted onto the balloon using 25 microliters at a time and dried with gentle heat from an electric blowdryer. The catheter assembly was then left overnight to dry. To measure the drug release the catheter was inflated and immersed in 5 ml of PBS-albumin buffer at pH 7.4 for a specific time with mild revolution to create movement. The catheter was then removed and placed in a new tube containing 5 ml of PBS-Album in for the second drug release time point. One ml of dichloromethane was added to each 5 ml of PBS and the tube shaken. The contents were allowed to settle and the top liquid aspirated off. The dichloromemethane was allowed to dry and then the solids were redissolved in 60/40 acetonitrile/water v/v and drug quantitated by HPLC analysis (c18 column, 58/5/37 acetonitrile/methanol/water at 1 ml/min flow rate with detection at 232 nm)

[2] = test system: pig bladder tissue; experiment: Uptake of paclitaxel into pig bladder tissue from methoxypolyethylene glycol pastes with EGCG or tannic acid; assay type: in vitro ADME; conditions: MEPEG paste with EGCG or tannic acid, 5% drug, urothelial or perivascular side, 2 hours
Protocol: Methods: Fresh ex vivo pig bladders were cut into 2 cm diameter pieces and laid on franz diffusions cells. […] 100 mg of paste was applied to either the perivascular or urothelial side of the bladder tissue and 200 ul of tyrodes buffer pH 7.4 was added. The tissue was incubated for 2 hours at 37° C. and then the diffusion cell was disassembled, the tissue was washed free of remaining paste with excess tyrodes and the tissues were then frozen and cryosectioned for radioactivity counting by liquid scintillation methods.

## CC(=O)O[C@H]1C(=O)[C@@]2(C)[C@H]([C@H](OC(=O)c3ccccc3)[C@]3(O)C[C@H](OC(=O)[C@H](O)[C@@H](NC(=O)c4ccccc4)c4ccccc4)C(C)=C1C3(C)C)[C@]1(OC(C)=O)CO[C@@H]1C[C@@H]2O [paclitaxel]
[1]; EGCG alone (zero percentage diblock copolymer), PBS-albumin pH 7.4
  release of paclitaxel from coated balloon catheter: all paclitaxel was released in one minute
[1]; EGCG with 10 percentage diblock copolymer
  time to complete release of paclitaxel: ≤ 2 min
[1]; EGCG with 20 percentage diblock copolymer
  time to complete release of paclitaxel: ≤ 2 min
[1]; EGCG with 50% diblock copolymer
  release rate of paclitaxel: slowed the release rate dramatically
[2]
  penetration of paclitaxel into the bladder tissue: allowed for the penetration
